Experimental data reported in patent publication US20240390451A1, “MODIFIED TRIPEPTIDES FOR USE IN THE TREATMENT OF A NON-ENVELOPED VIRUS INFECTION” (PHARMA HOLDINGS AS, priority 2021, published 2024).
Where “and” joins values, the source holds several entries; their conditions need not be identical. Equal values may be shown once. Read-outs that look alike come from different tables or passages of the source.

Experiments:
HeLaM cells [1] = conditions: dilution at which cytotoxicity on HeLaM cells was observed, without virus, after filtration, 1% LTX-7 (w/v) in PBS or 0.25% SDS
Procedure: A parallel test where the same procedure was carried out in the absence of virus was included to determine any residual cytotoxic effect of LTX-7 on the assay cells.

[2] = tested on: Rhinovirus (HRV-A60), Strain: 2268-CV37; assay: Antiviral activity of LTX-7 against Rhinovirus: 1 hour incubation, filtration, TCID50 endpoint dilution on HeLaM cells; type: cell-based, Human Rhinovirus 60; conditions: for % Reduction: as compared to the PBS control; for % Reduction / Log decrease / Rounded %: contact time 1 hour, 1% LTX-7 or 0.25% SDS; for TCID50/ml ± SEM: average virus titre recovered, contact time 1 hour at RT, 1% LTX-7 (w/v) in PBS or 0.25% SDS in PBS; for Log decrease: decrease in infectivity as compared to the PBS control; for Rounded %: rounded % reduction as compared to the PBS control
Procedure: The Rhinovirus used was from BEI Resources: Rhinovirus (HRV-A60), Strain: 2268-CV37 (BEI Resources Catalogue Number NR-51447).
To test whether LTX-7 has antiviral activity against Rhinovirus, 5×10^5 infectious units of Rhinovirus (40 μl) were incubated with four volumes of 1% LTX-7 (w/v) dissolved in PBS (160 μl) or a PBS (Phosphate-buffered saline) negative control. As a positive control, a buffer containing 0.25% SDS (Sodium dodecyl sulphate) in PBS was tested in parallel. Each sample and the PBS control were tested in triplicates.
(§1) After 1 hour at room temperature (RT), the incubation was stopped by adding an excess of cold assay media (5 ml), and the formulation was physically separated from the virus through a filter (Sartorius VivaSpin 6, 100,000 MWCO, PES (Sartorius, VS0642)) to reduce cytotoxicity on the assay cells. The assay media was DMEM (Gibco 61965-026) supplemented with 2% FBS (Gibco 10500-064), 20 mM Hepes (Gibco 15630-056) and 1× p/s (Gibco 15070063).
The starting solution for the serial dilution (i.e. the neat (or undiluted) solution or 10^0 solution) was obtained by re-suspending the virus that was separated via the filtration step in 1 ml of assay media. […] Appropriate controls were also performed.

Rhinovirus 60, 2268-CV37 [3] = assay: Antiviral activity of 1% LTX-109 against Rhinovirus: 1 hour incubation, filtration, TCID50 endpoint dilution on HeLa cells; type: cell-based, Human Rhinovirus 60; conditions: for TCID50/ml ± SEM: average virus titre recovered after 1 hour incubation, 1% LTX-109 (w/v) in PBS or 0.25% SDS, triplicate; for Log decrease: decrease in infectivity as compared to the PBS control; for Log decrease / Percentage: 1 hour; for Log decrease / Log / Percentage: 1% LTX-109 or 0.25% SDS; for Log: log of recovered virus titre after 1 hour incubation; for Percentage: reduction in infectivity as compared to the PBS control
Procedure: (§2) The Rhinovirus used was from BEI Resources: Rhinovirus 60, 2268-CV37 (Catalogue No. NR-51447).
(§3) To test whether 1% LTX-109 (w/v) has antiviral activity against Rhinovirus, 2.24×10^5 infectious units of Rhinovirus (40 μl) were incubated with four volumes of 1% LTX-109 dissolved in PBS (160 μl), alongside a PBS (Phosphate-buffered saline) control and a 0.25% SDS (Sodium dodecyl sulphate) positive control. The treatments were performed in triplicate.
After 1 hour, the incubation was stopped by adding an excess of media, and the liquid was filtered through a filter (Sartorius VivaSpin 6) to separate the virus in order to reduce cytotoxicity on the assay cells. The assay media was DMEM (Gibco 61965-026) supplemented with 2% FBS (Gibco 10500-064), 20 mM Hepes (Gibco 15630-056) and 1×p/s (Gibco 15070063).
(§4) Appropriate controls were also performed.

HeLa cells [4] = conditions: dilution at which cytotoxicity on HeLa cells was observed, without virus, after filtration, 1% LTX-109 (w/v) in PBS or 0.25% SDS
Procedure: Infectious virus was quantified through a serial dilution of the filtrate (a series of ten-fold dilutions) on monolayers of HeLa cells in microtitre plates (HeLa cells are human cells capable of displaying a cytopathic effect (CPE) upon viral infection). For each dilution of the virus in the dilution series, eight wells of the microtitre plate were tested (i.e. each dilution was applied to eight separate wells, each well containing a HeLa cell monolayer). Appropriate controls were also performed. […] The TCID50 (TCID50/ml) assay (Tissue Culture Infectious Dose 50 assay) is a type of endpoint dilution assay that is well known in the art and routinely used to quantitatively measure virus titres. TCID50/ml provides a measure of infectious units of virus/ml. “/ml” refers to /ml of the starting solution (i.e. neat/undiluted solution) mentioned above. A parallel test where the same procedure was carried out in the absence of virus was included to determine any residual cytotoxic effect of the formulation on the assay cells.

HeLaM cells [5] = assay: Parallel test without virus: residual cytotoxic effect of LTX-109 on the assay cells (Example 4); conditions: dilution at which cytotoxicity on HeLaM cells was observed, after filtration and re-suspension, 1% LTX-109 or 2.5% glutaraldehyde in PBS
Procedure: A parallel test where the same procedure was carried out in the absence of virus was included to determine any residual cytotoxic effect of LTX-109 on the assay cells.

HeLa cells [6] = conditions: dilution at which cytotoxicity on HeLa cells was observed, without virus, after dilution, 3% LTX-109 (w/v) in PBS or 0.25% SDS
Procedure: A parallel test where the same procedure was carried out in the absence of virus was included to determine any residual cytotoxic effect of the formulation on the assay cells.

[7] = tested on: Human Rhinovirus 14, strain 1059; assay: Antiviral (virucidal) activity of 1% LTX-109 against Human Rhinovirus 14: 1 hour incubation, filtration, TCID50 on HeLaM cells; type: cell-based; conditions: for TCID50/ml ± SEM: average virus titre recovered, contact time 1 hour at RT, 1% LTX-109 (triplicate) or 2.5% glutaraldehyde in PBS (single replicate); for Log decrease: decrease in infectivity as compared to the PBS control; for Log decrease / % Reduction: contact time 1 hour, 1% LTX-109 or 2.5% glutaraldehyde; for % Reduction: reduction in Rhinovirus 14 infectivity as compared to the PBS control
Procedure: The virus used was from ATCC: Human Rhinovirus 14, strain 1059 (ATCC VR-284, lot number 70049530).
To test whether 1% LTX-109 has virucidal activity against Human Rhinovirus 14, 4×10^7 infectious units of Human Rhinovirus 14 in 40 μl were incubated with four volumes (160 μl) of 1% LTX-109 or a PBS negative control. As a positive control, a buffer containing 2.5% glutaraldehyde in PBS was tested in parallel. Both LTX-109 and negative control were tested in triplicates. The positive control was tested in a single replicate.
as §1, with “PES)” for “PES (Sartorius, VS0642))”, “10566016)” for “61965-026)”, “10500064),” for “10500-064),”, “HEPES” for “Hepes”, “15630056)” for “15630-056)”, “PenStrep” for “p/s”
Concentrated virus was re-suspended in 1 ml of assay media and infectious virus was quantified through a serial dilution (10^−1 to 10^−8) on a monolayer of HeLaM cells plated the day before at 8,000 cells/100 μl/well. […] Specifically, on a 96 well plate, 225 μl of media were placed in each well of 4 columns (32 wells in total). In the 4 wells of the top row (row A), 25 μl of re-suspended virus was added and mixed. With a multichannel pipette, 25 μl of media was then taken from the 4 wells in row A to the next 4 wells in row B, and then from row B to row C, and so on until row H, creating a serial dilution (10^−1 to 10^−8). 200 μl from each well was then added to separate wells containing a monolayer of HeLa M cells. Appropriate controls were also performed.

Rhinovirus 60, 2268-CV37 [8] = assay: Antiviral activity of 3% LTX-109 against Rhinovirus: 1 hour incubation, dilution in media, TCID50 endpoint dilution on HeLa cells; type: cell-based, Human Rhinovirus 60; conditions: for Log decrease: decrease in infectivity as compared to the PBS control; for Log decrease / Percentage: 1 hour; for Log decrease / Log / Percentage: 3% LTX-109 or 0.25% SDS; for Log: log of recovered virus titre after 1 hour incubation; for Percentage: reduction in infectivity as compared to the PBS control
Procedure: as §2
as §3, with “3%” for “1%”, “9×10^5” for “2.24×10^5”
After 1 hour, the incubation was stopped by adding 50 μl of mixture to 5 ml of media. The assay media was DMEM (Gibco 61965-026) supplemented with 2% FBS (Gibco 10500-064), 20 mM Hepes (Gibco 15630-056) and 1× p/s (Gibco 15070063).
as §4

[9] = listed as POSITIVE CONTROL (SDS), sulphate

| SMILES | % Reduction [2] | Log decrease [2] | TCID50/ml ± SEM (Rhinovirus 60, 2268-CV37 [3]) | Log decrease (Rhinovirus 60, 2268-CV37 [3]) | Log (Rhinovirus 60, 2268-CV37 [3]) | Percentage (Rhinovirus 60, 2268-CV37 [3]) | Cytotoxicity (HeLa cells [4]) | Cytotoxicity (HeLaM cells [5]) | Cytotoxicity (HeLa cells [6]) | TCID50/ml ± SEM [7] | Log decrease [7] | % Reduction [7] | Log decrease (Rhinovirus 60, 2268-CV37 [8]) | Log (Rhinovirus 60, 2268-CV37 [8]) | Percentage (Rhinovirus 60, 2268-CV37 [8]) | also measured |
| --- | --- | --- | --- | --- | --- | --- | --- | --- | --- | --- | --- | --- | --- | --- | --- | --- |
| N=C(N)NCCCC(N)C(=O)NC(Cc1ccc(-c2ccc3ccccc3c2)cc1)C(=O)NC(CCCNC(=N)N)C(=O)NCCc1ccccc1 (stereo not drawn) [LTX-7, Arg-Phe(4-(2-Naphthyl))-Arg-NH—CH2—CH2-Ph] | 95.791% | 1.33 logs |  |  |  |  |  |  |  |  |  |  |  |  |  | Cytotoxicity (HeLaM cells [1]): observed (only) with the neat application and only cytotoxic before any serial dilutions are performed and Neat; TCID50/ml ± SEM [2]: 3.86E+03 TCID50/ml and 3.86E+03 ± 1.14E+03 TCID50/ml |
| CC(C)(C)c1cc(C(C)(C)C)c2[nH]c(C(C)(C)C)c(CC(NC(=O)C(N)CCCNC(=N)N)C(=O)NC(CCCNC(=N)N)C(=O)NCCc3ccccc3)c2c1 (stereo not drawn) [LTX-109] |  |  | 4.8E+03 TCID50/ml and 4.80E+03 ± 8.21E+02 TCID50/ml | 1.9 logs | 3.7 | 98.89% | only cytotoxic before any serial dilutions are performed | 10^−1 | only cytotoxic before any serial dilutions are performed | 1.80E+06 TCID50/ml | 1.05 logs | 91.2% | 1.9 logs | 2.3 | 98.87% | Cytotoxicity (HeLa cells [4]; listed as 1% LTX-109): observed (only) with the neat application and Neat; Cytotoxicity (HeLa cells [6]; listed as 3% LTX-109): Neat; Cytotoxicity (HeLa cells [6]; listed as 3% formulation): observed (only) with the neat application; TCID50/ml ± SEM ([7]; listed as 1% LTX-109): 1.80E+06 (±3.08 ± 05) TCID50/ml; % Reduction ([7]; listed as 1% LTX-109): 91.2% and 91.17% |
| O=CCCCC=O [Positive Control, glutaraldehyde, reference compound] |  |  |  |  |  |  |  | Neat |  | 3.75E+01 TCID50/ml | 5.74 logs | 99.9998% |  |  |  | % Reduction ([7]; listed as 2.5% glutaraldehyde in PBS): ~99.9% |
| CCCCCCCCCCCCOS(=O)(=O)[O-].[Na+] [SDS, Sodium dodecyl sulphate, reference compound] | 99.983% | 3.67 logs | 1.00E+02 TCID50/ml | 3.6 logs | 2.0 | 99.98% | Neat |  | Neat |  |  |  | 3.0 logs | 1.2 | 99.91% | Cytotoxicity (HeLaM cells [1]; [9]): Neat; Cytotoxicity (HeLaM cells [1]; sulphate): observed (only) with the neat application; TCID50/ml ± SEM [2, 9]: 1.58E+01 (SEM ND) TCID50/ml; TCID50/ml ± SEM ([2]; sulphate): 1.58E+01 TCID50/ml; Rounded % [2, 9]: 99.9%; Rounded % ([2]; sulphate): ~99.9%; TCID50/ml ± SEM (Rhinovirus 60, 2268-CV37 [8]; average virus titre recovered after 1 hour incubation, 3% LTX-109 (w/v) in PBS or 0.25% SDS, triplicate): 1.58E+01 TCID50/ml |
